What is called Kd is the constant that tells how readily two partners part at equilibrium.

The structures appear in SMILES notation. Activity calls are given as the source filed them. Cut-off read from the data, not from the text of the source, for most assays here: actives have a measured Kd and inactives only a lower limit.

For assay [1], the target named is Cyclin-dependent kinase 6 (Homo sapiens, UniProt Q00534).
Assay [2] has as its target T1, Mitogen-activated protein kinase kinase kinase 2 (Homo sapiens, UniProt Q9Y2U5).
T1 sequence (Q9Y2U5 whole entry): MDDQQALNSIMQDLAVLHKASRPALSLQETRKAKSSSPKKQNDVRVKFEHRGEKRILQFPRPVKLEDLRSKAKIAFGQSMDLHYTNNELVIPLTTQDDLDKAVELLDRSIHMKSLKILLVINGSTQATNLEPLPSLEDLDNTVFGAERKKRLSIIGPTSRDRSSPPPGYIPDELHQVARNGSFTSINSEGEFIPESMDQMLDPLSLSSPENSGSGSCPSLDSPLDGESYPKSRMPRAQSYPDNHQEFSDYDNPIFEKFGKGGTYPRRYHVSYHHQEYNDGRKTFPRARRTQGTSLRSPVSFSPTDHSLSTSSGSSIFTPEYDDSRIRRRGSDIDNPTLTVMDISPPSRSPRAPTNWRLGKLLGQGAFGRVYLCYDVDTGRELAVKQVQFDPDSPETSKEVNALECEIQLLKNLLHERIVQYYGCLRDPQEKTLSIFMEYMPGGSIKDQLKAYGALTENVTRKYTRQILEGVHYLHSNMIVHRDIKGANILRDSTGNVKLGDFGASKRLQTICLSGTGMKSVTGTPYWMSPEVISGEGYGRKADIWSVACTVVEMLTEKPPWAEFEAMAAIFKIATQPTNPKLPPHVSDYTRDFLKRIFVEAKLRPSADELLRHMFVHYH

The target in assay [3] is T2, Serine/threonine-protein kinase Nek3 (Homo sapiens, UniProt P51956).
T2 sequence (P51956 whole entry): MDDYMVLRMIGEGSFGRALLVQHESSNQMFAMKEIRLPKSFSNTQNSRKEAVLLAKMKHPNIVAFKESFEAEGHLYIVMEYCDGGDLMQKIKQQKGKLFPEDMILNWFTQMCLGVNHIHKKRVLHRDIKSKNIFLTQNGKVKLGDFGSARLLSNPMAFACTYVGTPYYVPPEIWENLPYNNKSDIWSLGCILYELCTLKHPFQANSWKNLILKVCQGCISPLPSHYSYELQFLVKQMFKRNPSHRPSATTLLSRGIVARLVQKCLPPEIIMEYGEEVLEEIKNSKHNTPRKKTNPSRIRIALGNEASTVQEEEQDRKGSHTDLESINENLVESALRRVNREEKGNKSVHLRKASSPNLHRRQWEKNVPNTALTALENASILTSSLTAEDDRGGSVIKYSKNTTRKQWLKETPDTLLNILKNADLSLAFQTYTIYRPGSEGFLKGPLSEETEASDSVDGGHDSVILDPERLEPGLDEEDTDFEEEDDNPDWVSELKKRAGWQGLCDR

Assay [4] concerns the target Protein-tyrosine kinase 2-beta (Homo sapiens, UniProt Q14289).
In assay [5] the target is Protein-tyrosine kinase 6 (Homo sapiens, UniProt Q13882).
Sequence of Protein-tyrosine kinase 6 (Q13882 whole entry): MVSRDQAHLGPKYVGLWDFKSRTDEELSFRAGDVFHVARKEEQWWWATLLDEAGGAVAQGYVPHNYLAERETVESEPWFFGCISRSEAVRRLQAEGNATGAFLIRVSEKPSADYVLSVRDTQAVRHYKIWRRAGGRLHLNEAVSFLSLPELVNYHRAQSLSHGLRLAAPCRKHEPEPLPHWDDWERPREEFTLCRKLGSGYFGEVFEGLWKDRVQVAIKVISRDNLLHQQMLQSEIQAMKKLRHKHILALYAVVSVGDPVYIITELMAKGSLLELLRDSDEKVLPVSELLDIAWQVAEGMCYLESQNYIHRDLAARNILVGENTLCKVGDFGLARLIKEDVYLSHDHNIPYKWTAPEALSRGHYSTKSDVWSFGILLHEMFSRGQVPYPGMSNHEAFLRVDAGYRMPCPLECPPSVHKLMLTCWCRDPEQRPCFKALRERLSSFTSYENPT
The target in assay [6] is T3, Ras-related protein Rab-27A (Homo sapiens, UniProt P51159).
T3 sequence (P51159 whole entry): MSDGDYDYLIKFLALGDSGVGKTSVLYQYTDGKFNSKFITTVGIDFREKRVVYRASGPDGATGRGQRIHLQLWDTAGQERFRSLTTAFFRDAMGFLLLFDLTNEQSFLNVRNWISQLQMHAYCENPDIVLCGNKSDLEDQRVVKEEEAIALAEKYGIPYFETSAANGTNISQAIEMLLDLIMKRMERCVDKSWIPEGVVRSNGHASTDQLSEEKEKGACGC

Assay [7] deals with Proto-oncogene tyrosine-protein kinase receptor Ret (Homo sapiens, UniProt P07949).
Sequence of Proto-oncogene tyrosine-protein kinase receptor Ret (P07949 whole entry): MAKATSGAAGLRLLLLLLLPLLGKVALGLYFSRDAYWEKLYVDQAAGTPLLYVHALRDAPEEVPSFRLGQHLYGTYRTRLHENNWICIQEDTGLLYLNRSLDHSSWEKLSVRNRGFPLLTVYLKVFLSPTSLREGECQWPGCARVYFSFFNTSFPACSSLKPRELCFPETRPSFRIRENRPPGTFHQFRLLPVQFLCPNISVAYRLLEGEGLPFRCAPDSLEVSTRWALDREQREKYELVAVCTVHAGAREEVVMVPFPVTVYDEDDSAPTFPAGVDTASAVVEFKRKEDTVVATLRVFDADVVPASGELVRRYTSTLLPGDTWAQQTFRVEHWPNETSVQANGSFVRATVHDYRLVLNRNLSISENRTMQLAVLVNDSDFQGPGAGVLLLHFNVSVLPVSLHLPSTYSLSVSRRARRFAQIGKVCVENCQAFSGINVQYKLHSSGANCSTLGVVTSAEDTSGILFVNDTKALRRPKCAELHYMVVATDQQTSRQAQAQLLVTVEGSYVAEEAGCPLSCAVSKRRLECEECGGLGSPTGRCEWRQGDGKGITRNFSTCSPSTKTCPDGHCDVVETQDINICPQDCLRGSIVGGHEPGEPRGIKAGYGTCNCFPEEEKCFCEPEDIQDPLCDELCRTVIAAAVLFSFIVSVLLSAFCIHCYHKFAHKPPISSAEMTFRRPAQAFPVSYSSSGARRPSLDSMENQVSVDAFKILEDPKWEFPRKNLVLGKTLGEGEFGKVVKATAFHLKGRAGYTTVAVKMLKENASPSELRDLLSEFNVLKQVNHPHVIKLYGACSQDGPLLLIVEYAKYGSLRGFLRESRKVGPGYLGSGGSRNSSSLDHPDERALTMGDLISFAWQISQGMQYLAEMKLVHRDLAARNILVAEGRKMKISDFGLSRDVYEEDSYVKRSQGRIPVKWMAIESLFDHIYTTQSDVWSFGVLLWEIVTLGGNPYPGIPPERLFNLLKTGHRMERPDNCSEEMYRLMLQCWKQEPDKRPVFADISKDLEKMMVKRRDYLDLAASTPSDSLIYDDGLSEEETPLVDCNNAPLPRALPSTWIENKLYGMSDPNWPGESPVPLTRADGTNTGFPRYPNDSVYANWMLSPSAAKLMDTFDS
Assay [8] addresses T4, Serine/threonine-protein kinase STK11 (Homo sapiens, UniProt Q15831).
T4 sequence (Q15831 whole entry): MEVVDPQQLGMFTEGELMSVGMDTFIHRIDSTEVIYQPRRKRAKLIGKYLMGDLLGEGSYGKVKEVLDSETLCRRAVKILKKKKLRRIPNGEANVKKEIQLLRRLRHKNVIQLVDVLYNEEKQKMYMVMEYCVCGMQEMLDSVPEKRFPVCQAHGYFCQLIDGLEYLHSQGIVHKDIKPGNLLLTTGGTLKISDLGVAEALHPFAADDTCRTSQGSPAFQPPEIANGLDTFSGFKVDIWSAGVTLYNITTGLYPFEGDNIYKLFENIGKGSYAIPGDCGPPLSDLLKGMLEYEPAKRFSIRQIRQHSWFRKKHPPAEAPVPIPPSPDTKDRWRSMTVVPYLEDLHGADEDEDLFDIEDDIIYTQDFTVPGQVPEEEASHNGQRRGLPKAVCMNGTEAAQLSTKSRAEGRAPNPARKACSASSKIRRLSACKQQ

Assay [9] concerns the target Activated CDC42 kinase 1 (Homo sapiens, UniProt Q07912).
Note: in the data inactive means no Kd found up to 30 µM.

Sequence of Activated CDC42 kinase 1 (Q07912 whole entry): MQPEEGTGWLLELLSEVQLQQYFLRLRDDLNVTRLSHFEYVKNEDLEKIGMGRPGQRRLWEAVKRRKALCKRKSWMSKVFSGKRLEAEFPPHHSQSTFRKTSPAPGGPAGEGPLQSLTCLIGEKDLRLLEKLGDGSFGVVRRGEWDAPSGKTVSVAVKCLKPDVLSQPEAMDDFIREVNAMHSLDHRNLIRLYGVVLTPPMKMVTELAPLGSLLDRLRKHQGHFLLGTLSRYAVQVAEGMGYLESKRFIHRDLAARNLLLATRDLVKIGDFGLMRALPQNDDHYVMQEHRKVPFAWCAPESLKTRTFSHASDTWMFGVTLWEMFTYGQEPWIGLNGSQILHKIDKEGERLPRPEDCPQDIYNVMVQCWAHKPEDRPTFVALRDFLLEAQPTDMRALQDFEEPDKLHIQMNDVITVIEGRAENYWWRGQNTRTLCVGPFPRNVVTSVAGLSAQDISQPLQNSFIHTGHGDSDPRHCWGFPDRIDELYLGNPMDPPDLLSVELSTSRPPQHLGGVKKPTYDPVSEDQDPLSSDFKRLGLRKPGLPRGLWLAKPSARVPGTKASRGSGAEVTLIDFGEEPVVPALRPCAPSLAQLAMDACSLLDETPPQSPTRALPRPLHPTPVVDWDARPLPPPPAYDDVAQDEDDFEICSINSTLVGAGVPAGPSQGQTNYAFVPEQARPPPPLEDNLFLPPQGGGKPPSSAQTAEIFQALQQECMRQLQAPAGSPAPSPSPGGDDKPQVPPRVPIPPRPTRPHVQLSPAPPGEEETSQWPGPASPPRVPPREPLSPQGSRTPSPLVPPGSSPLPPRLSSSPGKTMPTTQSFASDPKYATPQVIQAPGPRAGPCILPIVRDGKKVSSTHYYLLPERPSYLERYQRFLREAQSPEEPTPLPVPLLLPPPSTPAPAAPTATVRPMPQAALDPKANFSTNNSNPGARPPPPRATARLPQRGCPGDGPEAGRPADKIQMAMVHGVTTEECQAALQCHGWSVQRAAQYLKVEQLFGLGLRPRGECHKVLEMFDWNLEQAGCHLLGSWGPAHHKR
Sequence of Protein-tyrosine kinase 2-beta (Q14289 whole entry): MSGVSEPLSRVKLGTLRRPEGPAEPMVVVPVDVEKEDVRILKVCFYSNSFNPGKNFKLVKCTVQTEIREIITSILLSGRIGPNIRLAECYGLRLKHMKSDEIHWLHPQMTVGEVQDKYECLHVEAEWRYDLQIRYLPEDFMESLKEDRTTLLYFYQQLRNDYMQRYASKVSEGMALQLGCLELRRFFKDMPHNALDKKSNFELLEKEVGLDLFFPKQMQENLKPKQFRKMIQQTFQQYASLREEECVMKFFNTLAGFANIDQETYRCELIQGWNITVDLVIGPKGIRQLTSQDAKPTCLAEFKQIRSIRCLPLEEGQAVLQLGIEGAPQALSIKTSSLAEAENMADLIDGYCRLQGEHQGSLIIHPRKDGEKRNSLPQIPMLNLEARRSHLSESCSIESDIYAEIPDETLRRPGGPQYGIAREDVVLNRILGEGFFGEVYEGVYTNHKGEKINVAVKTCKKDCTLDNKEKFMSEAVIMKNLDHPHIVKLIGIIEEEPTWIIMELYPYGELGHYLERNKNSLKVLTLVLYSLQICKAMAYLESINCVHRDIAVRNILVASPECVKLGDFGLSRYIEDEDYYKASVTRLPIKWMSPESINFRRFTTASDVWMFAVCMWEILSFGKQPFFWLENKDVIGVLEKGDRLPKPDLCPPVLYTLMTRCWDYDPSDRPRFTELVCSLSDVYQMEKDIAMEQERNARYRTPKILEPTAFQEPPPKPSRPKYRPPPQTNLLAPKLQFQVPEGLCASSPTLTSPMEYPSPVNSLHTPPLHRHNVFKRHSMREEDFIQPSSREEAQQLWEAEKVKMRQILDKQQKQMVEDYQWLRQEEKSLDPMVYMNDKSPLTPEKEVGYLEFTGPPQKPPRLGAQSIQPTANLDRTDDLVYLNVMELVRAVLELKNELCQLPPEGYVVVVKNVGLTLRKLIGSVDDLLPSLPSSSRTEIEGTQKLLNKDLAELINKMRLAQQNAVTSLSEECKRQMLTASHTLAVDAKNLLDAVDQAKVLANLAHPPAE
Sequence of Cyclin-dependent kinase 6 (Q00534 whole entry): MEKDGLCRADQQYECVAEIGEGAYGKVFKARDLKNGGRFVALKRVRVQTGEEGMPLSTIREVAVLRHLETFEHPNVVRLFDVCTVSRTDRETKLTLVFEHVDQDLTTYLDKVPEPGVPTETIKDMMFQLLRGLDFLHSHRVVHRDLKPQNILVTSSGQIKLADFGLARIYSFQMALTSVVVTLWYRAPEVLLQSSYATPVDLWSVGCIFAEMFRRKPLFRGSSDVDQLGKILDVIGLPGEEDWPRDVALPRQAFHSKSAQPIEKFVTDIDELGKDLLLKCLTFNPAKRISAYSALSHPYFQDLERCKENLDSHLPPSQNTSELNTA

`C[C@H]1CNCCCN1S(=O)(=O)c1cccc2cncc(F)c12`: the Kd in assay [1], in assay [2], in assay [3], in assay [4], in assay [5] and in assay [6] was > 30 µM (inactive) each time. In addition, the Kd in assay [7], in [8] and in assay [9] was > 30 µM (inactive) throughout.

As for `CCNC(=O)C#Cc1ccc2c(c1)NC(=O)/C2=C(\Nc1ccc(CN(C)C)cc1)c1ccccc1`, the dissociation constant Kd in assay [1] is 2.97 µM (active); in assay [2], > 30 µM (inactive); in assay [3], > 30 µM (inactive); in assay [4], > 30 µM (inactive); in assay [5], > 30 µM (inactive); in assay [6] it was > 30 µM (inactive). Further, the dissociation constant (Kd) in assay [7] is 0.227 µM (active); in assay [8] it was > 30 µM (inactive); in assay [9], 1.55 µM (active).

For the molecule `C=CC(=O)N1CCC[C@H](n2c(=O)n(-c3ccc(Oc4ccccc4)cc3)c3c(N)ncnc32)C1`, the Kd in [1] is > 30 µM (inactive); in assay [2], > 30 µM (inactive); in [3], > 30 µM (inactive); in assay [4], > 30 µM (inactive); in assay [5] it was 0.025 µM; in assay [6] it was > 30 µM (inactive). For the same molecule, the Kd in assay [7], in [8] and in assay [9] was > 30 µM (inactive) each time.

As for `Cc1nc2cc(-c3nn(C(C)C)c4ncnc(N)c34)ccc2o1`, the Kd in assay [1] is > 30 µM (inactive); in assay [2], > 30 µM (inactive); in [3], > 30 µM (inactive); in [4], > 30 µM (inactive); in assay [5] it was 2.1 µM (active); in assay [6] it was > 30 µM (inactive). Also, the Kd in assay [7] is 1.6 µM (active); in assay [8], > 30 µM (inactive); in assay [9], > 30 µM (inactive).

In the case of `COCc1c(-c2ccc(NC(=O)Nc3cc(C(F)(F)F)ccc3F)c(F)c2)c2c(N)ncnn2c1CN1CCOCC1`, the Kd in assay [1], in assay [2], in assay [3], in [4], in assay [5] and in assay [6] was > 30 µM (inactive) throughout. Also, the values for the Kd in assay [7], in assay [8] and in assay [9] were 0.093 µM (active), > 30 µM (inactive) and > 30 µM (inactive), respectively.

`Nc1ncnc2c1c(-c1cccc(OCc3ccccc3)c1)cn2[C@H]1C[C@@H](CN2CCC2)C1` [AEW-541]: the Kd in assay [1] was > 30 µM (inactive); in [2] it was > 30 µM (inactive); in assay [3], > 30 µM (inactive); in assay [4] it was > 30 µM (inactive); in assay [5], 1.94 µM (active); in assay [6] it was > 30 µM (inactive). For the same molecule, the dissociation constant (Kd) was 23.2 µM (active) in assay [7], > 30 µM (inactive) in assay [8] and > 30 µM (inactive) in assay [9].

As for `Cc1nc(NC(=O)N2CCC[C@H]2C(N)=O)sc1-c1ccnc(C(C)(C)C(F)(F)F)c1` [ALPELISIB], the Kd in assay [1], in assay [2], in [3], in assay [4], in assay [5] and in [7] was > 30 µM (inactive) in each case. The Kd in assay [8] and in assay [9] was > 30 µM (inactive) throughout.

In the case of `CNC(=O)c1nn(C)c2c1C(C)(C)Cc1cnc(Nc3ccc(N4CCN(C)CC4)cc3)nc1-2` [MILCICLIB], the dissociation constant Kd in assay [1] is 1.72 µM (active); in [2], > 30 µM (inactive); in assay [4] it was > 30 µM (inactive); in assay [5], > 30 µM (inactive); in assay [6] it was > 30 µM (inactive); in assay [7], 1.32 µM (active). Further, the figures for the Kd in assay [8] and in assay [9] were > 30 µM (inactive) and 0.9 µM (active), respectively.

The values are drawn from ChEMBL document CHEMBL3991601, “The target landscape of clinical kinase drugs” (Science, 2017).
